Patent US20150374784A1, “COMPOSITIONS AND METHODS FOR REDUCING GERM CELL DEATH” (Los Angeles Biomedical Research Institute at Harbor-UCLA …, priority 2014, published 2015)

Columns and labels:
male germ cells = type: in vivo; settings: B16 tumor-bearing mice
Method: A total of 25 young adult mice (10-12 weeks) were randomly divided into 5 groups (n=5 per group). Five mice were used as control. Twenty mice were inoculated intravenously with B16 murine melanoma cells (2×10^5 cells/mouse). Among these 20 tumor-inoculated mice, 5 mice received no further treatment. After one week, the remaining 15 mice were divided into 3 groups and injected with: 1) HNG daily IP (5 mg/Kg body weight) for 2 weeks; 2) CP (200 mg/Kg body weight IP single injection); 3) combined CP with HNG treatment (same doses as above). All mice were sacrificed 3 weeks after tumor inoculation, and 2 weeks after HNG and/or CP treatment. The animals were sacrificed with 5% pentobarbital (200 mg/kg body weight) IP injection after which blood was collected from the right atrium of the heart. One of the testes from each mouse was immersed fixed in Bouin's solution, and the mice were perfused with saline and subsequently perfuse-fixed with 5% glutaraldehyde in 0.05 M cacodylate buffer (pH 7.4). The lungs were dissected out and post fixed in 5% glutaraldehyde solution for 24 hours and stored in cacodylate buffer at 4° C. for the subsequent tumor count (Lue, et al., 2010; Lue, et al., 2009).

[1] = tested on: phosphorylated-AMPK (p-AMPK); test: Immunohistochemistry of lung metastases: p-AMPK; type: in vivo, mouse; settings: mean±SD; CP 200 mg/kg single IP; HNG 5 mg/kg daily IP 14 days
Method: (§1) Methods: Adult male mouse (n=5/group) were seeded with mouse B16 melanoma cells (100,000 cells/mouse) via tail vein on day 1. One week after melanoma cell inoculation, mice were treated either with a single intraperitoneal injection (IP) of CP (200 mg/kg), or daily IP injections of HNG (5 mg/kg), or both for 14 days. Mice were sacrificed at day 21 and lungs were fixed in formaldehyde. Immunohistochemistry was performed on lung metastases with antibodies against phosphorylated-AMPK (p-AMPK), p-4E-BP1 (downstream effector of mTOR) and Ki-67 antigen (a marker of cell proliferation).

germ cells = test: HNG on CP-induced germ cell apoptosis in mice, 24 hours (Example 6); type: in vivo, mouse; settings: CP 200 mg/kg/BW IP, HNG 5 mg/kg/BW IP
Method: To examine the protective effects of HNG on germ cells, adult mice were treated with vehicle (control); HNG (5 mg/kg/BW, intraperitoneal injection IP); CP (200 mg/kg/BW, IP); and CP+HNG for 24 hours.

Ki-67 antigen = test: Immunohistochemistry of lung metastases: Ki-67; type: in vivo, mouse; settings: CP 200 mg/kg single IP, HNG 5 mg/kg daily IP 14 days
Method: as §1

mouse B16 melanoma cells = test: Number of metastatic lung tumors, B16 melanoma (Example 9); type: in vivo; settings: day 21; CP 200 mg/kg single IP; HNG 5 mg/kg daily IP 14 days
Method: as §1

ovaries = type: in vivo; settings: day 14; HNG 5 mg/kg/day IP; CP 100 mg/Kg single IP
Method: A mouse mammary cancer model was used which utilizes 4T1 cells transfected with the luciferase gene. Growth and size of 4T1 mammary tumors were detected by bioluminescence imaging (IVIS Luminia II, Perkin Elmer, Waltham, Mass.). Mice (n=5 to 7 per group) were inoculated with 1×10^6 4 T1 cells into the right third mammary gland, and 7 days later they were left untreated or treated with HNG (5 mg/kg/day IP), CP (100 mg/Kg single IP) or HNG+CP for 14 days. Animals were sacrificed and both ovaries were removed from each mouse on day 14 after the start of treatment. Serial 5-micrometer sections were made. Every 5th section was examined and the number of primordial, primary, and secondary follicles counted (Kim S Y, et al., 2013; Bristol-Gould S K, et al., 2006; Roti Roti E C, et al., 2012). In addition, TUNEL staining for apoptotic cells and oocytes was quantified (Perez G I, et al., 1997; Ben-Aharon I, et al., 2010).

Leydig cells = test: Testosterone of cultured Leydig cells treated with ketoconazole; type: cell-based, rat; settings: HN 10 mcg/ml + KTZ 10 mcg/ml, 4 hours
Method: Leydig cells were isolated based on a previously described procedure (Gao, et al., 1996; Klinefelter, et al., 1987; Salva, et al., 2001). Briefly, the testes were decapsulated, and then dissociated with collagenase, dispase, DNase and shaking for 15 min at 34° C. The seminiferous tubules were removed by filtration through 40 μm nylon mesh (BD Falcon, Franklin Lakes, N.J.). Leydig cells were then harvested after centrifugation and purified using a Percoll gradient (GE Healthcare, Uppsala, Sweden) and centrifugation (60 minutes at 20,000 g at 4° C.). Enriched Leydig cells were harvested at densities between 1.065 (red) and 1.075 (blue) g/cm^3 from the percoll gradient. These Leydig cells were washed by diluting the percoll and excluding residual germ cells and other cells using a BSA density gradient with centrifugation. The purity of the Leydig cells was >90%, as determined by histochemical staining for 3β-hydroxysteroid dehydrogenase. The cell viability, as assessed by trypan blue exclusion, was greater than 90%. […]
Testosterone concentrations in plasma, testes, and culture medium were measured by a previously described radioimmunoassay (Lue, et al., 2010) with a minimal detection limit of 0.1 ng/ml. […]

Compound | testis weight (male germ cells; 2 weeks after CP 200 mg/Kg single IP) | germ cell apoptosis (percent of seminiferous tubules containing apoptotic germ cells) (male germ cells; 2 weeks after treatment, CP 200 mg/Kg single IP, HNG 5 mg/Kg daily IP) | percent p-AMPK positive cells in metastatic lung melanoma [1] | germ cell apoptosis (apoptotic index) (germ cells) | mean Ki-67 index (Ki-67 antigen) | decrease in number of metastatic lung tumors compared to non-treated mice (mouse B16 melanoma cells) | ovarian follicles in representative sections (ovaries) | KTZ induced decrease in testosterone production by Leydig cells (Leydig cells)
O=P1(N(CCCl)CCCl)NCCCO1 (centres unmarked) [CP, cyclophosphamide monohydrate] | significantly decreased the testis weight | significantly increased germ cell apoptosis | 11.3±15.6% | significantly increased germ cell apoptosis in all stages of spermatogenesis | 30.0±16.2 | ~50% | have less secondary, but more atretic follicles | –
MAPRGFSCLLLLTSEIDLPVKRRA [HN, 24-amino acid mitochondrial derived peptide] | – | – | – | – | – | – | – | did not salvage the KTZ induced decrease in testosterone production
